Assay results taken from ChEMBL document CHEMBL3352254, “Inhibitors of HGFA, Matriptase, and Hepsin Serine Proteases: A Nonkinase Strategy to Block Cell Signaling in Cancer” (ACS Med Chem Lett, 2014).
Residues, ends and D or L forms follow the SMILES beside them.

Tests used:
[1] = biological target: T1, Hepatocyte growth factor activator serine protease (Homo sapiens, UniProt Q04756); experiment: (§1) Inhibition of HGFA in human MDA-MB-231 cells assessed as inhibition of c-MET phosphorylation after 15 mins by immunoblotting; type: cell-based
T1 sequence (Q04756 whole entry): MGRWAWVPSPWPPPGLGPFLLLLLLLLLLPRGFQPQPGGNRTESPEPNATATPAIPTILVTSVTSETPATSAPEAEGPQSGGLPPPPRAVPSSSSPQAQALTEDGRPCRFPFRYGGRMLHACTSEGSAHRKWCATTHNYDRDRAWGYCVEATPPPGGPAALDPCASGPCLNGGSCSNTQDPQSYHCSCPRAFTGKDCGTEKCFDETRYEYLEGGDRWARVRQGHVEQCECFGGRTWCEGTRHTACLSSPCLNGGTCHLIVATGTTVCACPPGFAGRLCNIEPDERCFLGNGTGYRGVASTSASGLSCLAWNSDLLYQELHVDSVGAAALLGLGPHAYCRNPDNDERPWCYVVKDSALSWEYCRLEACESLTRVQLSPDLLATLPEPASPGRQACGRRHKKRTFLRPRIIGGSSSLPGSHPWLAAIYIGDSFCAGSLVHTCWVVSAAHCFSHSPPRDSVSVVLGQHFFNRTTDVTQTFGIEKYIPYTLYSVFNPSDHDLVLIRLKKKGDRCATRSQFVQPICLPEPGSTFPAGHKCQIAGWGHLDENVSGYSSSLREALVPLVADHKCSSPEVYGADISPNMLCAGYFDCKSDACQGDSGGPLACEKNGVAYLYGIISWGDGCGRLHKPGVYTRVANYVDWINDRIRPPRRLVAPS

[2] = biological target: T2, Hepatocyte growth factor activator serine protease (Homo sapiens) (UniProt Q04756); experiment: Inhibition of recombinant HGFA (unknown origin)-mediated proteolytic activation of pro-HGF after 1 hr by immunoblotting
T2 sequence (whole entry): T1 sequence (Q04756 whole entry)

[3] = biological target: T2, Hepatocyte growth factor activator serine protease (Homo sapiens); experiment: Inhibition of recombinant HGFA (unknown origin)-mediated proteolytic activation of pro-MSP after 1 hr by immunoblotting
[4] = biological target: T3, Suppressor of tumorigenicity 14 protein (Homo sapiens, UniProt Q9Y5Y6); experiment: Inhibition of matriptase (unknown origin) using Boc-QAR-AMC as substrate by fluorescence assay
T3 sequence (Q9Y5Y6 whole entry): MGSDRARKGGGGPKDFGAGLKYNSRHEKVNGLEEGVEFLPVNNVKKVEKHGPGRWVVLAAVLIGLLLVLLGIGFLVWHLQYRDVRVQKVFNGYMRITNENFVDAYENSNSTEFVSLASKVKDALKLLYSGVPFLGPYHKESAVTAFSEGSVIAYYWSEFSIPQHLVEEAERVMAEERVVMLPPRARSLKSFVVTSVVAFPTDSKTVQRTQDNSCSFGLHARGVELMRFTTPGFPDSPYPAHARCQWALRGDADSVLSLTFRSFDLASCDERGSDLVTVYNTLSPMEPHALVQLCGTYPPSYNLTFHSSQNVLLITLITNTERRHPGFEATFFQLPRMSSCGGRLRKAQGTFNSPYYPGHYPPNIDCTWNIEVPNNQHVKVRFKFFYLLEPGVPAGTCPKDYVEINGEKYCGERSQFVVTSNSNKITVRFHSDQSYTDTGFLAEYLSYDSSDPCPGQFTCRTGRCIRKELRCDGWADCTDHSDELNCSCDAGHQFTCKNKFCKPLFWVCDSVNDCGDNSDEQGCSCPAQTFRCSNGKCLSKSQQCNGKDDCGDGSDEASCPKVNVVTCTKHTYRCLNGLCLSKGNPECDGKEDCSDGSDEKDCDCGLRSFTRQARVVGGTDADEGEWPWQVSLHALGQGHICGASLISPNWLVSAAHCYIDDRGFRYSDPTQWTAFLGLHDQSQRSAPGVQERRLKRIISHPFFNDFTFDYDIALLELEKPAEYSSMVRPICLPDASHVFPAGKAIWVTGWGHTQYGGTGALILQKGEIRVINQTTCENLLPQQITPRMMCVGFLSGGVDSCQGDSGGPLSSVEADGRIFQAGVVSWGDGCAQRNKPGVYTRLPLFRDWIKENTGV

Homo sapiens [5] = organism: Homo sapiens; experiment: Ratio of Ki for matriptase (unknown origin) to Ki for recombinant HGFA (unknown origin)
Homo sapiens [6] = organism: Homo sapiens; experiment: Ratio of Ki for matriptase (unknown origin) to Ki for recombinant hepsin (unknown origin)
Serine protease hepsin = Serine protease hepsin (Homo sapiens, UniProt P05981); experiment: Inhibition of recombinant hepsin (unknown origin) using Boc-QAR-AMC as substrate by fluorescence assay
Sequence of Serine protease hepsin (P05981 1-162 limits assumed): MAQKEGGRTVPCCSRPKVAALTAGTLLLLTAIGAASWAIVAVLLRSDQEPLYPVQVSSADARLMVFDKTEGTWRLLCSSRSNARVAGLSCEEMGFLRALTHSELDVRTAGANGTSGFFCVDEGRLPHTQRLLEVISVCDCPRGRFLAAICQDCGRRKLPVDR
Sequence of Serine protease hepsin (P05981 163-417 limits assumed): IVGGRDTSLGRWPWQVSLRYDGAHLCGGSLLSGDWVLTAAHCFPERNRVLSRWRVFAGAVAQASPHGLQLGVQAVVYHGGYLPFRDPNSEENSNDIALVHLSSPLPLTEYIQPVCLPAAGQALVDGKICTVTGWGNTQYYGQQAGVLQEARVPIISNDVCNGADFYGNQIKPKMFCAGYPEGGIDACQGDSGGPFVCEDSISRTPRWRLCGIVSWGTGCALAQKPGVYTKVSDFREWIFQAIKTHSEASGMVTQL

[7] = biological target: T2, Hepatocyte growth factor activator serine protease (Homo sapiens); experiment: as §1; type: cell-based

EC50 [1] [nM]	inhibition [2]	inhibition [3]	Ki [4] [nM]	Structure (SMILES)	other results
180				CC(C)C[C@H](NC(=O)[C@H](CCCNC(=N)N)NC(=O)[C@@H](N)CCCCN)C(=O)N[C@@H](CCCNC(=N)N)C(=O)O (H-KRLR-OH)	
	Dose-dependent effect	Dose-dependent effect		CC(=O)N[C@@H](Cc1c[nH]c2ccccc12)C(=O)N[C@@H](CCCNC(=N)N)C(=O)N[C@@H](CC(C)C)C(=O)N[C@@H](CCCNC(=N)N)C(=O)c1nccs1	
			32	CC(=O)N[C@@H](Cc1c[nH]c2ccccc12)C(=O)N[C@@H](CCC(N)=O)C(=O)N[C@@H](CC(C)C)C(=O)N[C@@H](CCCNC(=N)N)C(=O)c1nccs1	
				CC(=O)N[C@@H](CC(C)C)C(=O)N[C@@H](CC(C)C)C(=O)N[C@H](C=O)CCCNC(=N)N	Ratio Ki (Homo sapiens [5]): 3; Ratio Ki (Homo sapiens [6]): 3
490				N=C(N)c1ccc2cc(OC(=O)c3ccc(N=C(N)N)cc3)ccc2c1 [NAFAMOSTAT]	
		Dose-dependent effect		CC(=O)N[C@@H](CO)C(=O)N[C@@H](CCCNC(=N)N)C(=O)N[C@@H](CC(C)C)C(=O)N[C@@H](CCCNC(=N)N)C(=O)c1nccs1	
	Dose-dependent effect	Dose-dependent effect	0.92	CC(=O)N[C@@H](CCCCN)C(=O)N[C@@H](CCC(N)=O)C(=O)N[C@@H](CC(C)C)C(=O)N[C@@H](CCCNC(=N)N)C(=O)c1nccs1	Ki (Serine protease hepsin): 0.22 nM; Ratio Ki (Homo sapiens [6]): 200
3100				CC(C)C[C@H](NC(=O)[C@H](CCC(N)=O)NC(=O)[C@@H](N)CCCCN)C(=O)N[C@@H](CCCNC(=N)N)C(=O)O (H-KQLR-OH)	
			22	CC(=O)N[C@@H](CCCCN)C(=O)N[C@@H](Cc1cnc[nH]1)C(=O)N[C@@H](CC(C)C)C(=O)N[C@@H](CCCNC(=N)N)C(=O)c1nccs1	
	Dose-dependent effect	Dose-dependent effect		CC(=O)N[C@@H](CCCCN)C(=O)N[C@@H](CCCNC(=N)N)C(=O)N[C@@H](CC(C)C)C(=O)N[C@@H](CCCNC(=N)N)C(=O)c1nccs1	inhibition [7]: Dose-dependent effect
